According to article PMC10986598, “Investigating inhibitors of 1-deoxy-D-xylulose 5-phosphate synthase in a mouse model of UTI” (Microbiology Spectrum, 2024):
In brackets after ≈: the same amount, converted by molar mass.

Tested on: UPEC (CFT073)
Assay: Antimicrobial susceptibility of UPEC (CFT073) grown in urine
Format: cell-based, uropathogenic Escherichia coli
Description: Pooled human urine was filter-sterilized prior to use. Solid urine agar plates were prepared by supplementing cooled 1.5% (wt/vol) agar with filter-sterilized urine in a 4:1 ratio. OD600 measurements were performed on a Beckman DU800 UV/Visible spectrophotometer (Brea, CA, USA). MIC determination data were collected from bacteria in 96-well plates (Nunc Edge 96-Well, Non-Treated, Flat-Bottom Microplate) incubated and read on a Biotek Epoch 2 microplate reader. Uropathogenic E. coli strain CFT073 (ATCC: BAA-2503) was obtained from the lab of Rodney Welch ([58]). All microbial manipulation of pathogenic bacteria was conducted in a certified biosafety level 2 laboratory following all associated safety protocols. A hand-held tissue homogenizer (purchased from IKA, T10 basic S001, 3737001) was used to homogenize mouse bladders for bacterial enumeration.
UPEC (CFT073) cells from frozen glycerol stocks were streaked onto urine agar plates and grown for 48 h at 37°C. Three to five isolated colonies were inoculated into filter-sterilized urine supplemented with FeSO4 (20 µM), and the cultures were grown overnight with shaking at 37°C. The saturated cultures were subcultured (1:50) in fresh urine supplemented with FeSO4 (20 µM) and grown to exponential phase (OD600 ~ 0.25). Cultures at exponential phase were diluted 1:1,000 into fresh urine supplemented with FeSO4 (20 µM) to yield the experimental inoculum which was mixed 1:1 with urine containing pro-hpAP at 2 × the desired final concentration (0–10 µM). The final concentration of bacteria in each well was ~10^5 CFU/mL in a volume of 200 µL. Colony counts of the experimental inoculum were independently verified by dilution and enumeration on LB agar, grown for 16 h at 37°C, to confirm consistency between experiments. The 96-well plates were incubated at 37°C for 16 h with intermittent shaking. Fractional growth of cells treated with pro-hpAP was determined at 8 h relative to the no drug control. MIC determination was performed in biological triplicate.

C#CCCOP(=O)(O)C(=C)NC(=O)C(CC(C)C)NC(=O)CN (stereo not drawn) [pro-hpAP]
MIC (Escherichia coli, UPEC CFT073 in urine, read-out: MIC (growth suppressed >90%)): 5 µM (≈ 1.73 µg/mL)
reduction in fractional growth (UPEC CFT073 in urine, at 630 nM pro-hpAP, 8 h): > 70%
higher potency than BAP (MIC in urine) (UPEC in urine, relative to BAP): 250 fold
